These results are taken from ChEMBL document CHEMBL1147712, “Triketoacid inhibitors of HIV-integrase: a new chemotype useful for probing the integrase pharmacophore” (Bioorg Med Chem Lett, 2006).

Activity calls are given as the source filed them. The rule behind the calls is not given here.

For assay [1], the target named is T1, Human immunodeficiency virus type 1 integrase (Human immunodeficiency virus 1, UniProt Q7ZJM1).
Assay [2] concerns the target T1, Human immunodeficiency virus type 1 integrase. The source holds these as a separate data set.
In the next assay the test system is Enterobacteria phage T3. As to the kind of experiment: Inhibition of T3 polymerase.
The target of assay [3] is DNA polymerase I (Escherichia coli) (UniProt P00582). As to the kind of experiment: Inhibition of Klenow fragment.
For assay [4], the system named is Bovine viral diarrhea virus 1. Description: Antiviral activity against BVDV. In kind it is functional, organism-based.
For assay [5], the system named is Respiratory syncytial virus. As to the kind of experiment: Antiviral activity against RSV. It is filed as functional, organism-based.
Assay [6] has as its system Human immunodeficiency virus 1. As to the kind of experiment: Antiviral activity against HIV1. In kind it is functional, organism-based.
In the next assay the test system is Enterovirus. As to the kind of experiment: Antiviral activity against Rhinovirus. It is filed as functional, organism-based.
Assay [7] has as its system Human immunodeficiency virus 1. Description: Antiviral activity against wild-type HIV1 NL4-3. It is filed as functional, organism-based. The settings on record: Human immunodeficiency virus 1, NL4-3.
Assay [8] deals with Human immunodeficiency virus 1. Description: Antiviral activity against HIV1 T66I, L172F mutant. In kind it is functional, organism-based.
In assay [9] the test system is Human immunodeficiency virus 1. Description: Antiviral activity against HIV1 V151A, V165I mutant. In kind it is functional, organism-based.
In assay [10] the test system is Human immunodeficiency virus 1. Description: Antiviral activity against HIV1 NL4-3 T66I mutant. In kind it is functional, organism-based. The settings on record: Human immunodeficiency virus 1, NL4-3.
For assay [11], the target named is T1, Human immunodeficiency virus type 1 integrase. Description: Inhibition of HIV1 recombinant integrase in pre-integration complex.
Assay [12] has as its target Human immunodeficiency virus type 1 protease (Human immunodeficiency virus 1) (UniProt Q72874). Description: Inhibition of HIV protease.
Assay [13] addresses Human immunodeficiency virus type 1 reverse transcriptase (Human immunodeficiency virus 1) (UniProt Q72547). As to the kind of experiment: Inhibition of HIV-RT.
The target in assay [14] is Genome polyprotein (Bovine viral diarrhea virus (strain CP7) (BVDV) (Mucosal diseasevirus)) (UniProt Q96662). As to the kind of experiment: Inhibition of BVDV polymerase. The settings on record: Bovine viral diarrhea virus 1.

In the case of `O=C(CC(=O)C(=O)O)CC(=O)c1ccc(-c2ccccc2)cc1`, the IC50 (as a rule, the point on the concentration scale where inhibition reaches its midpoint) in assay [1] was 2 µM.

`O=C(CC(=O)C(=O)O)CC(=O)c1ccccn1` registered a half-maximal inhibitory concentration (IC50) in assay [1] of 100 µM.

Take `O=C(CC(=O)C(=O)O)CC(=O)c1ccccc1OCc1ccccc1`: inhibition in assay [1] was half-maximal at 7 µM (IC50).

With `O=C(CC(=O)C(=O)O)CC(=O)c1cccc2ccccc12`, in assay [1], the half-inhibitory concentration (IC50) worked out at 0.6 µM.

The compound `O=C(/C=C(\O)C(=O)O)CCc1ccccc1Br` showed a 50% inhibitory concentration (IC50) in assay [1] of 5 µM.

With `O=C(/C=C(\O)C(=O)O)CCc1ccc(Cl)c(Cl)c1`, in assay [2], inhibition was half-maximal at 0.01 µM (IC50).

Turning to `O=C(CC(=O)C(=O)O)CC(=O)c1ccccc1C(F)(F)F`, half-maximal inhibition in [1] (IC50) required 6 µM.

In [1], `O=C(CC(=O)C(=O)O)CC(=O)c1cccc(Cl)c1` gave a 50% inhibitory concentration (IC50) of 8 µM.

With `O=C(/C=C(\O)C(=O)O)CCc1ccccc1`, in assay [1], the IC50 was determined as 30 µM.

As to `O=C(O)C(=O)/C=C(\O)c1c[nH]c2ccc(Cl)cc12`, the results for the IC50 in [2] and in [1] were 0.08 µM and 0.4 µM, respectively.

Consider `O=C(CC(=O)c1nnn[nH]1)CC(=O)c1ccccc1Cl`, for which the IC50 in [1] was found to be 125 µM.

In assay [1], `O=C(CC(=O)C(=O)O)CC(=O)c1ccccc1` displayed an IC50 of 80 µM.

Compound `O=C(CC(=O)C(=O)O)CC(=O)c1cccnc1` showed a half-inhibitory concentration (IC50) in [1] greater than 300 µM.

`COc1ccccc1C(=O)CC(=O)CC(=O)C(=O)O` yielded an IC50 in [1] of 4 µM.

In the case of `O=C(CC(=O)c1cccn1Cc1ccc(F)cc1)c1nnn[nH]1`, in assay [1], the 50% inhibitory concentration (IC50) was greater than 125 µM.

In turn, `O=C(CC(=O)C(=O)O)CC(=O)c1ccc2ccccc2c1` displayed an IC50 in assay [1] of 6 µM.

As to `O=C(CC(=O)C(=O)O)CC(=O)c1ccccc1F`, it took 3 µM to reach half-maximal inhibition in [1] (IC50).

As to `O=C(CCc1ccccc1Cl)CC(=O)C(=O)O`, in assay [1], the 50% inhibitory concentration (IC50) is 9 µM.

As to `O=C(/C=C(\O)C(=O)O)CCc1ccccc1Cl`, the IC50 in assay [1] turned out to be 26 µM.

As to `O=C(CC(=O)C(=O)O)CC(=O)c1ccccc1Cl`, the result (in the assay with Enterobacteria phage T3; in assay [3]; in assay [4]; in assay [5]; with Enterovirus; in assay [12]) was inactive. Moreover, the outcome in assay [13] and in [14] was inactive. For the same compound, the EC50 (commonly the concentration giving half of the maximal effect) is 120 µM in [6]; 55 µM in [7]; greater than 200 µM in assay [8]; greater than 200 µM in assay [9]; greater than 200 µM in assay [10]. The IC50 turned out to be 0.6 µM in assay [11], 0.2 µM in assay [2] and 1 µM in assay [1].
